Reference: article PMC9021288 (Nature Communications, 2022)
≈ marks a conversion by molar mass, not a printed value. Where “and” joins values, the source holds several entries; their conditions need not be identical. Equal values may be shown once.

Assays:
[1] = system: P. falciparum Pf3D7^0087/N9 and Pf3D7^20161128TAD17N214; experiment: PKPD efficacy studies in humanized NSG mice and PD model; format: in vivo, Plasmodium falciparum
Experimental: The experimental designs are summarized in Supplementary Table 30. […] Samples were processed under liquid-liquid extraction methods and analyzed by LC-MS/MS for quantitation in a Waters UPLC-TQD (Micromass, Manchester, UK).
Data preparation, exploration and model pre- and postprocessing were performed using R (version 3.6.3) and R package IQRtools (version 1.2.1 IntiQuan GmbH). Non-linear mixed-effects (NLME) modeling was used to estimate the PK and PD parameters using Monolix (Lixoft version MLX2018R2). The population PKPD model was developed with a two-stage approach: first, a population PK model was determined; then, the individual PK parameters were used as regression parameters and the PD parameters were estimated. The PD model consists of the balance between a parasite net growth rate and a drug killing rate. […] The growth rate of log-transformed parasite concentration was fixed at 0.03 /h based on prior experiments but estimating growth rate interindividual variability. Different Hill coefficients were tested.

[2] = Metabolite identification in dog plasma and urine; conditions: in vivo
[3] = system: mouse primary hepatocytes; experiment: Hepatocyte stability, mouse; format: in vitro ADME
Pharmacokinetics in rats = format: in vivo, Sprague Dawley rats
Experimental: (§1) Subsequently, samples were spun down at 1640 g for 5-10 min at 4 °C within 30 min after collection and plasma was collected. […] Urine was collected following an intravenous dose in both rat and dog, allowing renal clearance to be estimated. Human renal clearance was estimated from dog renal clearance as previously described[40] and other human PK parameters were predicted using allometric scaling and/or in vitro clearance data. PK parameters were calculated by naïve pooled approach using WinNonLin software (Phoenix, version 6.3).

[4] = system: P. falciparum NF54 sporozoites / liver stages; experiment: Liver-stage development in human primary hepatocytes; format: cell-based, Plasmodium falciparum; design: infected hepatocytes (Rep1, Rep2): unit not given here
Experimental: To assess parasite development in hepatocytes, cryopreserved human primary hepatocytes (Tebu-Bio lot: HC10-10) were thawed according to the manufacturer’s protocol and seeded (50,000 cells per well) in collagen-coated 96-well plates (Greiner). Cells were cultured at 37 °C in 5% CO2 and the medium was refreshed after 3 h and 24 h. Salivary glands from Anopheles stephensi mosquitoes were dissected to obtain NF54 sporozoites that were added (60,000 per well) to hepatocytes 48 h post-thawing. Plates were spun down and sporozoites were incubated with hepatocytes for 3 h. Subsequently, sporozoites were aspirated and compounds diluted in hepatocyte medium, were added to the hepatocytes (0.1% DMSO final concentration). Medium-containing compounds was refreshed daily for four days. Hepatocytes were fixed with ice-cold methanol and samples were blocked with 10% fetal bovine serum (FBS) in PBS. Samples were incubated with rabbit anti-HSP70 (1:75, StressMarq) in 10% FBS for 1-2 h followed by incubation with secondary goat anti-rabbit AlexaFluor 594 antibody (1:1000, Invitrogen) in 10% FBS for 30 min. Samples were washed with PBS containing 0.05% Tween 20 between different steps. Cells were imaged on the Biotek Cytation and images were analyzed automatically using FIJI software.

[5] = Pharmacokinetics in dogs (cassette dosing); format: in vivo, Beagle dogs
Experimental: as §1

Q: With `C[C@@H](CNC(=O)[C@H](O)C(C)(C)CO)NC(=O)c1cc(F)c(F)cc1F` [MMV693183] as the molecule, how does the “EC50, concentration achieving 50percent of maximum effect” value ([1]; PD model estimate) read?
A: 11.5 ng/mL

Q: And the MIC ([1]; PKPD model)?
A: 3.2 ng/mL (≈ 8.83 nM)

Q: What about the MPC90 ([1]; PKPD model) of the same molecule?
A: 38.4 ng/mL

Q: And the ED90 ([1]; in vivo)?
A: 4.4 mg/kg

Q: What about the “time at which 3D7 parasites were cleared” value ([1]; single-dose groups) of the same molecule?
A: 4 to 6 days

Q: And the “detected in Plasma” value [2]?
A: Yes

Q: What about the “detected in Urine” value [2] of the same molecule?
A: Yes

Q: And the “Compound Remaining (% of 0 min)” value ([3]; 0 min)?
A: 100%

Q: And the “Compound Remaining (% of 0 min)” value ([3]; 5 min)?
A: 114%

Q: What about the “Compound Remaining (% of 0 min)” value ([3]; 10 min) of the same molecule?
A: 109%

Q: And the “Compound Remaining (% of 0 min)” value ([3]; 20 min)?
A: 103%

Q: What about the “Compound Remaining (% of 0 min)” value ([3]; 40 min) of the same molecule?
A: 101%

Q: What about the “Compound Remaining (% of 0 min)” value ([3]; 60 min) of the same molecule?
A: 105%

Q: And the “Observed hepatic/ predicted hepatic” value (Pharmacokinetics in rats; Rat)?
A: 1.0

Q: What about the “Observed total-renal = observed hepatic” value (Pharmacokinetics in rats; Rat) of the same molecule?
A: 13.5 mL/min/kg

Q: And the “Predicted hepatic plasma clearance” value (Pharmacokinetics in rats; Rat)?
A: 13.3 mL/min/kg

Q: And the Norm. conc i.v. (Pharmacokinetics in rats; Rat, Time (hrs) 0)?
A: 0 ng/mL

Q: What about the Norm. conc i.v. (Pharmacokinetics in rats; Rat, Time (hrs) 0.083333) of the same molecule?
A: 1040 ng/mL and 843.333 ng/mL

Q: And the Norm. conc i.v. (Pharmacokinetics in rats; Rat, Time (hrs) 0.25)?
A: 746.667 ng/mL and 613.333 ng/mL and 566.667 ng/mL

Q: And the Norm. conc i.v. (Pharmacokinetics in rats; Rat, Time (hrs) 0.5)?
A: 490 ng/mL and 406.667 ng/mL and 376.667 ng/mL

Q: What about the Norm. conc i.v. (Pharmacokinetics in rats; Rat, Time (hrs) 1) of the same molecule?
A: 217.333 ng/mL and 175 ng/mL and 167 ng/mL

Q: And the Norm. conc i.v. (Pharmacokinetics in rats; Rat, Time (hrs) 2)?
A: 53.3333 ng/mL and 56.3333 ng/mL and 51.6667 ng/mL

Q: What about the Norm. conc i.v. (Pharmacokinetics in rats; Rat, Time (hrs) 4) of the same molecule?
A: 21.4 ng/mL and 17.9 ng/mL and 18.1 ng/mL

Q: And the Norm. conc p.o. (Pharmacokinetics in rats; Rat, Time (hrs) 0)?
A: 0 ng/mL

Q: And the Norm. conc p.o. (Pharmacokinetics in rats; Rat, Time (hrs) 0.25)?
A: 726.667 ng/mL and 573.333 ng/mL and 746.667 ng/mL

Q: And the Norm. conc p.o. (Pharmacokinetics in rats; Rat, Time (hrs) 0.5)?
A: 686.667 ng/mL and 511.333 ng/mL and 591.333 ng/mL

Q: What about the Norm. conc p.o. (Pharmacokinetics in rats; Rat, Time (hrs) 1) of the same molecule?
A: 380.667 ng/mL and 303.333 ng/mL and 362 ng/mL

Q: What about the Norm. conc p.o. (Pharmacokinetics in rats; Rat, Time (hrs) 4) of the same molecule?
A: 22.4667 ng/mL and 18.8 ng/mL and 29.5 ng/mL

Q: And the Norm. conc p.o. (Pharmacokinetics in rats; Rat, Time (hrs) 8)?
A: 12.2 ng/mL and 7.667 ng/mL and 10.6333 ng/mL

Q: And the “AUC0-∞” value (Pharmacokinetics in rats; i.v. 3 mg/kg, mean)?
A: 2398.4 ng·h/mL

Q: And the AUClast (Pharmacokinetics in rats; i.v. 3 mg/kg, mean)?
A: 2394.8 ng·h/mL

Q: What about the C0 (Pharmacokinetics in rats; i.v. 3 mg/kg, mean) of the same molecule?
A: 3245.1 ng/mL

Q: What about the Kel (Pharmacokinetics in rats; i.v. 3 mg/kg, mean) of the same molecule?
A: 0.22 h⁻¹

Q: What about the Vss_obs (Pharmacokinetics in rats; i.v. 3 mg/kg, mean) of the same molecule?
A: 1.9624 L/kg

Q: What about the CLtotal (Pharmacokinetics in rats; i.v. 3 mg/kg, mean, 3 mg/kg) of the same molecule?
A: 21.1 mL/min/kg and 21.14 mL/min/kg and 21 mL/min/kg

Q: And the T1/2 (Pharmacokinetics in rats; i.v. 3 mg/kg, mean, 3 mg/kg)?
A: 3.1 h and 3.13 h

Q: What about the “AUC0-∞” value (Pharmacokinetics in rats; p.o. 30 mg/kg, mean) of the same molecule?
A: 29077.1 ng·h/mL

Q: What about the AUClast (Pharmacokinetics in rats; p.o. 30 mg/kg, mean) of the same molecule?
A: 29063.9 ng·h/mL

Q: And the CLtotal (Pharmacokinetics in rats; p.o. 30 mg/kg, mean)?
A: 17.57 mL/min/kg

Q: And the Cmax (Pharmacokinetics in rats; p.o. 30 mg/kg, mean)?
A: 20466.7 ng/mL

Q: And the Kel (Pharmacokinetics in rats; p.o. 30 mg/kg, mean)?
A: 0.27 h⁻¹

Q: And the T1/2 (Pharmacokinetics in rats; p.o. 30 mg/kg, mean)?
A: 2.57 h

Q: And the Tmax (Pharmacokinetics in rats; p.o. 30 mg/kg, mean)?
A: 0.25 h

Q: What about the “%F” value (Pharmacokinetics in rats; p.o. 30 mg/kg, mean, 30 mg/kg) of the same molecule?
A: 121% and 121.24%

Q: What about the “efficacy against liver stages” value [4] of the same molecule?
A: not efficacious against liver stages

Q: And the “infected hepatocytes (Rep1, Rep2)” value ([4]; log concentration (M) -5)?
A: 0.0299 and 0.0223

Q: What about the “infected hepatocytes (Rep1, Rep2)” value ([4]; log concentration (M) -5.5) of the same molecule?
A: 0.0585 and 0.0696

Q: What about the “infected hepatocytes (Rep1, Rep2)” value ([4]; log concentration (M) -7) of the same molecule?
A: 0.3352 and 0.4993

Q: What about the “infected hepatocytes (Rep1, Rep2)” value ([4]; log concentration (M) -7.5) of the same molecule?
A: 0.3658 and 0.5068

Q: What about the “Observed hepatic/ predicted hepatic” value ([5]; Dog) of the same molecule?
A: 0.95

Q: What about the “Observed total-renal = observed hepatic” value ([5]; Dog) of the same molecule?
A: 10.5 mL/min/kg

Q: What about the “Predicted hepatic plasma clearance” value ([5]; Dog) of the same molecule?
A: 11.1 mL/min/kg

Q: And the Norm. conc i.v. ([5]; Dog, Time (hrs) 0.083333)?
A: 1180 ng/mL and 892 ng/mL and 1160 ng/mL

Q: And the Norm. conc i.v. ([5]; Dog, Time (hrs) 0.25)?
A: 732 ng/mL and 660 ng/mL and 906 ng/mL

Q: What about the Norm. conc i.v. ([5]; Dog, Time (hrs) 0.5) of the same molecule?
A: 414 ng/mL and 439 ng/mL and 345 ng/mL

Q: And the Norm. conc i.v. ([5]; Dog, Time (hrs) 1)?
A: 166 ng/mL and 228 ng/mL and 178 ng/mL

Q: And the Norm. conc i.v. ([5]; Dog, Time (hrs) 2)?
A: 52.9 ng/mL and 68.5 ng/mL and 55.6 ng/mL

Q: And the Norm. conc i.v. ([5]; Dog, Time (hrs) 4)?
A: 28.7 ng/mL and 29.7 ng/mL and 29.8 ng/mL

Q: What about the Norm. conc i.v. ([5]; Dog, Time (hrs) 8) of the same molecule?
A: 14.6 ng/mL and 21.2 ng/mL and 17.8 ng/mL

Q: What about the Norm. conc i.v. ([5]; Dog, Time (hrs) 24) of the same molecule?
A: 2 ng/mL and 3.19 ng/mL and 2.05 ng/mL

Q: What about the Norm. conc p.o. ([5]; Dog, Time (hrs) 0.25) of the same molecule?
A: 815 ng/mL and 580 ng/mL and 439 ng/mL

Q: And the Norm. conc p.o. ([5]; Dog, Time (hrs) 0.5)?
A: 485 ng/mL and 365 ng/mL and 280.5 ng/mL

Q: What about the Norm. conc p.o. ([5]; Dog, Time (hrs) 1) of the same molecule?
A: 132.5 ng/mL and 118.5 ng/mL and 171.5 ng/mL

Q: What about the Norm. conc p.o. ([5]; Dog, Time (hrs) 2) of the same molecule?
A: 29.9 ng/mL and 28.05 ng/mL and 47.05 ng/mL

Q: And the Norm. conc p.o. ([5]; Dog, Time (hrs) 4)?
A: 15.6 ng/mL and 14.15 ng/mL and 21.05 ng/mL

Q: What about the Norm. conc p.o. ([5]; Dog, Time (hrs) 24) of the same molecule?
A: 1 ng/mL and 1.115 ng/mL

Q: And the “AUC0-∞” value ([5]; i.v. 1 mg/kg, mean)?
A: 1451 ng·h/mL

Q: And the AUClast ([5]; i.v. 1 mg/kg, mean)?
A: 1423 ng·h/mL

Q: And the Cmax ([5]; i.v. 1 mg/kg, mean)?
A: 1077 ng/mL

Q: What about the Vss_obs ([5]; i.v. 1 mg/kg, mean) of the same molecule?
A: 1.79 L/kg

Q: What about the CLtotal ([5]; i.v. 1 mg/kg, mean, 1 mg/kg) of the same molecule?
A: 11.5 mL/min/kg and 11.52 mL/min/kg

Q: What about the T1/2 ([5]; i.v. 1 mg/kg, mean, 1 mg/kg) of the same molecule?
A: 4.2 h and 4.23 h

Q: What about the “AUC0-∞” value ([5]; p.o. 2 mg/kg, mean) of the same molecule?
A: 1902 ng·h/mL

Q: What about the AUClast ([5]; p.o. 2 mg/kg, mean) of the same molecule?
A: 1844 ng·h/mL

Q: And the Cmax ([5]; p.o. 2 mg/kg, mean)?
A: 1286 ng/mL

Q: And the T1/2 ([5]; p.o. 2 mg/kg, mean)?
A: 2.93 h

Q: What about the F ([5]; p.o. 2 mg/kg, mean, 2 mg/kg) of the same molecule?
A: 64% and 63.7%

Q: What about the Tmax ([5]; p.o. 2 mg/kg, mean, 2 mg/kg) of the same molecule?
A: 0.333 h
